Structures can show the parent of a compound that is named as a salt.
Columns and labels:
Type in all cases: physicochemical
[1] = Thermogravimetric analysis (TGA) of OND
Description: Thermogravimetric analysis (TGA) was used to determine weight loss of OND due to dehydration. A weighed sample of OND was heated from 25° C. to 300° C. at a rate of 20° C./min in a platinum pan under an inert nitrogen atmosphere purge flowing at a rate of 20 ml per minute. Heating caused loss of 2 moles of loosely bound water from each mole of OND dihydrate.

[2] = Dynamic vapor sorption (DVS) of OND; conditions: 25 °C
Description: Dynamic vapor sorption (DVS) was then used to measure the weight loss of OND during an isotherm dehydration study. The DVS apparatus (Surface Measurement Systems, London, UK) was a commercially available water sorption apparatus, which allowed an OND sample to be weighed under defined temperature and humidity conditions. About 14 mg of OND was weighed onto an aluminum pan. The DVS apparatus was programmed to run from 0% to 90% relative humidity (RH) at increments of 10% RH and then again going from 90% back to 0% RH at decrements of 10% RH. The study was conducted at 25° C. and in triplicate. The accuracy of the DVS apparatus was ±1.0% for the RH and ±0.2° C. for the temperature.

[3] = Hot-stage microscopy (HSM) of OND; conditions: heated 35 to 150 °C at 2 °C/min in silicone oil
Description: Hot-stage microscopy (HSM) was used to capture images at different stages of OND transformation. A glass slide with a sample of a small amount of OND dispersed in silicone oil was inserted into a hot-stage system (FTIR 600, Linkam Scientific Instruments, Surrey, UK). The OND sample was examined while being heated from 35° C. to 150° C. at a constant rate of 2° C./min. A camera-mounted optical microscope (Cary 620 IR, Agilent Technologies, Santa Clara, Calif., USA) equipped with a hot-stage was used to capture images at different stages of the OND transformation.

[4] = DSC/FTIR compatibility and crystallinity of OND (Example 3); conditions: 1:1 ratio
Source text: Differential scanning calorimetry (Diamond DSC, Perkin Elmer Life and Analytical Sciences, 710 Bridgeport Ave., Conn., USA) equipped with Pyris manager software (Shelton, Conn., USA) and Fourier transform infrared spectroscopy (FTIR, Agilent Technologies Cary 660, Santa Clara, Calif.) were used to study the compatibility of OND with various polymeric carriers in 1:1 ratio in a dry granulation process carried out in a twin-screw extruder to provide granules used to produce extended release tablets. Samples were prepared by hermetically sealing approximately 3-5 mg of pure OND or powder mixture in aluminum pans, which were then heated over a temperature range of 40-250° C. at a linear heating rate of 10° C./min under an inert nitrogen atmosphere. An FTIR bench equipped with a […]® attenuated total reflection (Pike Technologies, Madison, Wis.) was used to generate mid-infrared spectra in the range of 4000-650 cm-1, which was fitted with a single bounce diamond coated ZnSe internal reflection element. […] Thus, the crystalline structure of OND was preserved in the granules.

temperature range of dehydration event (TGA) ([1]; TGA thermogram): 60-105 °C
weight lost (TGA) ([1]; heated from 60-105 °C, 20 °C/min, nitrogen): about 10%
weight gain (DVS) ([2]; RH increased beyond 20% up to 90%): 9.2%
weight gain (DVS) ([2]; RH increased from 0% to 10%): 2.67%
weight gain (DVS) ([2]; RH increased to 20%): 8.9%
weight loss (DVS) ([2]; at 0% RH): 9.5%
weight decrease (DVS) ([2]; desorption, at 10% RH): up to 4.44%
temperature at which crystals started dehydration (HSM) [3]: 90 °C
compatibility of OND with polymeric carriers [4]: compatible
Compound: Cc1nccn1CC1CCc2c(c3ccccc3n2C)C1=O (stereo not drawn) [OND, Ondansetron HCl dihydrate]

Reference: patent US10786459B2, “Twin-screw dry granulation for producing solid formulations” (R. P. Scherer Technologies LLC, priority 2016, dated 2020)
